Our source for the IC50 values is US10258603B2 (priority 2014, dated 2019).

For the experiment, the target named is T1, TAF1-BD2 (Homo sapiens, UniProt P21675).
T1 sequence (P21675 1525-1656): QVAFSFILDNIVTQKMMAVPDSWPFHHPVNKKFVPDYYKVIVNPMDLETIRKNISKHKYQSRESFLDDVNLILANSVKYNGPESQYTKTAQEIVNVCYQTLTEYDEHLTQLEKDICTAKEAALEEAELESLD
Kind of experiment: TAF1-BD2 TR-FRET Binding Assay. Conditions: Assay: TAF-1. For orientation: TR-FRET usually uses a lanthanide donor and a delayed reading to cut background.
Procedure: Specifically, in a 384 well ProxiPlate TAF1-BD2 (6 nM final) was combined with biotin-ligand (50 nM final) in 50 mM HEPES (pH 7.5), 50 mM NaCl, 1 mM TCEP, 0.01% (w/v) BSA, and 0.008% (w/v) Brij-35 either in the presence of DMSO (final 0.2% DMSO) or compound dilution series in DMSO. After 10 minutes incubation at room temperature, a mixture Eu-W1024 Anti-6×His antibody (Perkin Elmer AD0110) and SureLight™ Allophycocyanin-Streptavidin (APC-SA, Perkin Elmer CR130-100) were added to a final concentrations of 0.2 nMolar antibody and 25 nMolar APC-SA, respectively. After twenty minutes of equilibration, the plates were read on an Envision instrument and IC50s calculated using a four parameter non-linear curve fit.
For `Cn1cc(C(=O)NCC(C)(C)N2CCOCC2)c2cc[nH]c2c1=O` [Example 36, 6-methyl-N-(2-methyl-2-morpholino-propyl)-7-oxo-1H-pyrrolo [2,3-c]pyridine-4-carboxamide], the IC50 was determined as 1700 nM.
The result for `CN(C)C1CCN(C(=O)c2cn(C)c(=O)c3[nH]ccc23)CC1` [Example 40, 4-[4-(dimethylamino)piperidine-1-carbonyl]-6-methyl-1H-pyrrolo[2,3-c]pyridin-7-one] reads 69 nM; that for `Cn1cc(C(=O)NC2CCN(c3ccccn3)CC2)c2cc[nH]c2c1=O` [Example 42, 6-methyl-7-oxo-N-[1-(2-pyridyl)-4-piperidyl]-1H-pyrrolo[2,3-c]pyridine-4-carboxamide], 210 nM.
Compound `Cn1cc(C(=O)NC2CCN(C3CCCC3)CC2)c2cc[nH]c2c1=O` [Example 43, N-(1-cyclopentyl-4-piperidyl)-6-methyl-7-oxo-1H-pyrrolo[2,3-c]pyridine-4-carboxamide] displayed an IC50 of 720 nM. Against the preceding compound, the IC50 is about 3.4-fold higher.
Then `Cn1cc(C(=O)NC2CCN(c3ncccn3)CC2)c2cc[nH]c2c1=O` [Example 44, 6-methyl-7-oxo-N-(1-pyrimidin-2-yl-4-piperidyl)-1H-pyrrolo[2,3-c]pyridine-4-carboxamide], with 340 nM; and `Cn1cc(C(=O)N2CCC(C(C)(C)C)CC2)c2cc[nH]c2c1=O` [Example 47, 4-(4-tert-butylpiperidine-1-carbonyl)-6-methyl-1H-pyrrolo[2,3-c]pyridin-7-one], with 2300 nM; and `Cn1cc(C(=O)N2CCC(c3ccc(Cl)cc3)CC2)c2cc[nH]c2c1=O` [Example 48, 4-[4-(4-chlorophenyl)piperidine-1-carbonyl]-6-methyl-1H-pyrrolo[2,3-c]pyridin-7-one], with 1500 nM.
Consider `Cn1cc(C(=O)N2CCC(c3cccc(F)c3)CC2)c2cc[nH]c2c1=O` [Example 49, 4-[4-(3-fluorophenyl)piperidine-1-carbonyl]-6-methyl-1H-pyrrolo[2,3-c]pyridin-7-one], for which the IC50 was 3900 nM.
As to `Cn1cc(C(=O)N2CCC(c3cnccn3)CC2)c2cc[nH]c2c1=O` [Example 51, 6-methyl-4-(4-pyrazin-2-ylpiperidine-1-carbonyl)-1H-pyrrolo[2,3-c]pyridin-7-one], the IC50 turned out to be 4400 nM.
The result for `CN(C1CCCCC1)C1CCN(C(=O)c2cn(C)c(=O)c3[nH]ccc23)CC1` [Example 52, 4-[4-[cyclohexyl(methyl)amino]piperidine-1-carbonyl]-6-methyl-1H-pyrrolo[2,3-c]pyridin-7-one] reads 7100 nM; that for `Cn1cc(C(=O)N2CCC(F)CC2)c2cc[nH]c2c1=O` [Example 53, 4-(4-fluoropiperidine-1-carbonyl)-6-methyl-1H-pyrrolo[2,3-c]pyridin-7-one], 8200 nM.
`Cn1cc(C(=O)N2CCC(CCNS(C)(=O)=O)CC2)c2cc[nH]c2c1=O` [Example 54, N-[2-[1-(6-methyl-7-oxo-1H-pyrrolo[2,3-c]pyridine-4-carbonyl)-4-piperidyl]ethyl]methanesulfonamide] came in with an IC50 of 2900 nM.
Then `Cn1cc(C(=O)N2CCC(c3ccncn3)CC2)c2cc[nH]c2c1=O` [Example 56, 6-methyl-4-(4-pyrimidin-4-ylpiperidine-1-carbonyl)-1H-pyrrolo[2,3-c]pyridin-7-one], with 2500 nM; and `Cn1cc(C(=O)N2CCC(Cc3ccccn3)CC2)c2cc[nH]c2c1=O` [Example 58, 6-methyl-4-[4-(2-pyridylmethyl)piperidine-1-carbonyl]-1H-pyrrolo[2,3-c]pyridin-7-one], with 1500 nM.
For the compound `Cn1cc(C(=O)N2CCC(N3CCOCC3)CC2)c2cc[nH]c2c1=O` [Example 63, 6-methyl-4-(4-morpholinopiperidine-1-carbonyl)-1H-pyrrolo[2,3-c]pyridin-7-one], the IC50 came to 4700 nM.
The compound `Cn1cc(C(=O)N2CCCCC2)c2cc[nH]c2c1=O` [Example 70, 6-methyl-4-(piperidine-1-carbonyl)-1H-pyrrolo[2,3-c]pyridin-7-one] had an IC50 of 6400 nM.
`Cn1cc(C(=O)N2CCC(c3ccccc3)CC2)c2cc[nH]c2c1=O` [Example 71, 6-methyl-4-(4-phenylpiperidine-1-carbonyl)-1H-pyrrolo[2,3-c]pyridin-7-one] had an IC50 of 3000 nM.
On to `CCCN1CCC(N(C(=O)c2cn(C)c(=O)c3[nH]ccc23)C2CC2)CC1` [Example 82, N-cyclopropyl-6-methyl-7-oxo-N-(1-propyl-4-piperidyl)-1H-pyrrolo[2,3-c]pyridine-4-carboxamide], for which the IC50 worked out at 7000 nM.
Take `Cn1cc(C(=O)NCC2CCCC2)c2cc[nH]c2c1=O` [Example 83, N-(cyclopentylmethyl)-6-methyl-7-oxo-1H-pyrrolo[2,3-c]pyridine-4-carboxamide]: the IC50 turned out to be 670 nM. This IC50 lies about 10-fold lower than the previous one.
`COCCN(C(=O)c1cn(C)c(=O)c2[nH]ccc12)C1CCN(C)CC1` [Example 84] gave an IC50 of 5700 nM.
In turn, `Cn1cc(C(=O)NCC2CCCOC2)c2cc[nH]c2c1=O` (stereo not drawn) [Example 100] yielded an IC50 of 1700 nM. This IC50 lies about 3.4-fold lower than the previous one.
Compound `Cn1cc(C(=O)NCC2CN(C(=O)OC(C)(C)C)C2)c2cc[nH]c2c1=O` [Example 130] displayed an IC50 of 1200 nM. The IC50 values of the last two compounds are within 1.5-fold of each other.
`Cn1cc(C(=O)NCC2CCN(C(=O)OC(C)(C)C)CC2)c2cc[nH]c2c1=O` [Example 133] yielded an IC50 of 850 nM.
For `Cn1cc(C(=O)NCC2CCCN(C(=O)OC(C)(C)C)C2)c2cc[nH]c2c1=O` (stereo not drawn) [Example 135], the IC50 worked out at 1300 nM.
Then `Cn1cc(C(=O)NCC2CCN(C(=O)OC(C)(C)C)C2)c2cc[nH]c2c1=O` (stereo not drawn) [Example 137], with 510 nM; and `Cn1cc(C(=O)NC2CCN(c3ccncn3)CC2)c2cc[nH]c2c1=O` [Example 148, 6-methyl-7-oxo-N-(1-pyrimidin-4-yl-4-piperidyl)-1H-pyrrolo[2,3-c]pyridine-4-carboxamide], with 440 nM; and `Cc1cnc(N2CCC(NC(=O)c3cn(C)c(=O)c4[nH]ccc34)CC2)nc1` [Example 149, 6-methyl-N-[1-(5-methylpyrimidin-2-yl)-4-piperidyl]-7-oxo-1H-pyrrolo[2,3-c]pyridine-4-carboxamide], with 320 nM.
`Cc1ccnc(N2CCC(NC(=O)c3cn(C)c(=O)c4[nH]ccc34)CC2)n1` [Example 150, 6-methyl-N-[1-(4-methylpyrimidin-2-yl)-4-piperidyl]-7-oxo-1H-pyrrolo[2,3-c]pyridine-4-carboxamide] yielded an IC50 of 360 nM.
In the case of `Cn1cc(C(=O)NC2CCN(c3cnccn3)CC2)c2cc[nH]c2c1=O` [Example 151, 6-methyl-7-oxo-N-(1-pyrazin-2-yl-4-piperidyl)-1H-pyrrolo[2,3-c]pyridine-4-carboxamide], the IC50 was 550 nM.
On to `Cn1cc(C(=O)NC2CCN(c3ncc(C#N)cn3)CC2)c2cc[nH]c2c1=O` [Example 152, N-[1-(5-cyanopyrimidin-2-yl)-4-piperidyl]-6-methyl-7-oxo-1H-pyrrolo[2,3-c]pyridine-4-carboxamide], for which the IC50 is 570 nM.
Consider `Cn1cc(C(=O)NC2CCN(c3nccc(C(F)(F)F)n3)CC2)c2cc[nH]c2c1=O` [Example 153, 6-methyl-7-oxo-N-[1-[4-(trifluoromethyl)pyrimidin-2-yl]-4-piperidyl]-1H-pyrrolo[2,3-c]pyridine-4-carboxamide], for which the IC50 is 490 nM.
`Cn1cc(C(=O)NC2CCN(c3ncc(F)cn3)CC2)c2cc[nH]c2c1=O` [Example 154, N-[1-(5-fluoropyrimidin-2-yl)-4-piperidyl]-6-methyl-7-oxo-1H-pyrrolo[2,3-c]pyridine-4-carboxamide]: the IC50 is 530 nM.
As for `Cn1cc(C(=O)NC2CCN(c3cccnn3)CC2)c2cc[nH]c2c1=O` [Example 155, 6-methyl-7-oxo-N-(1-pyridazin-3-yl-4-piperidyl)-1H-pyrrolo[2,3-c]pyridine-4-carboxamide], the IC50 is 330 nM.
`Cn1cc(C(=O)NC2CCN(c3nccc(C#N)n3)CC2)c2cc[nH]c2c1=O` [Example 156, N-[1-(4-cyanopyrimidin-2-yl)-4-piperidyl]-6-methyl-7-oxo-1H-pyrrolo[2,3-c]pyridine-4-carboxamide] showed an IC50 of 990 nM.
Consider `CN(CC1CCN(c2ncccn2)CC1)C(=O)c1cn(C)c(=O)c2[nH]ccc12` [Example 157, N,6-dimethyl-7-oxo-N-[(1-pyrimidin-2-yl-4-piperidyl)methyl]-1H-pyrrolo[2,3-c]pyridine-4-carboxamide], for which the IC50 is 1600 nM.
`C=CCn1cc(C(=O)N(C)C2CCN(c3cc(CCC)ncn3)CC2)c2cc[nH]c2c1=O` [Example 166, 6-allyl-N-methyl-7-oxo-N-[1-(6-propylpyrimidin-4-yl)-4-piperidyl]-1H-pyrrolo[2,3-c]pyridine-4-carboxamide] had an IC50 of 2100 nM.
For `Cn1cc(C(=O)NC2CCN(c3ccccc3)CC2)c2cc[nH]c2c1=O` [Example 171, 6-methyl-7-oxo-N-(1-phenyl-4-piperidyl)-1H-pyrrolo[2,3-c]pyridine-4-carboxamide], the IC50 worked out at 260 nM.
As for `CC(C)c1ccc(N2CCC(N(C)C(=O)c3cn(C)c(=O)c4[nH]ccc34)CC2)cc1` [Example 180, N-[1-(4-isopropylphenyl)-4-piperidyl]-N,6-dimethyl-7-oxo-1H-pyrrolo[2,3-c]pyridine-4-carboxamide], the IC50 came to 160 nM.
`COCCN1CCC(CN(C)C(=O)c2cn(C)c(=O)c3[nH]ccc23)CC1` [Example 193]: the half-maximal inhibitory concentration (IC50) was 1600 nM.
The compound `CN(CC1CCN(Cc2cccc(Cl)c2)CC1)C(=O)c1cn(C)c(=O)c2[nH]ccc12` [Example 199] gave an IC50 of 18000 nM.
Compound `CN(CC1CCN(Cc2ccc(Cl)cc2)CC1)C(=O)c1cn(C)c(=O)c2[nH]ccc12` [Example 200, N-[[1-[(4-chloropbenyl)methyl]-4-piperidyl]methyl]-N,6-dimethyl-7-oxo-1H-pyrrolo[2,3-c]pyridine-4-carboxamide] showed an IC50 of 8000 nM.
For the compound `CN1CCC(C)(NC(=O)c2cn(C)c(=O)c3[nH]ccc23)CC1` [Example 210, N-(1,4-dimethyl-4-piperidyl)-6-methyl-7-oxo-1H-pyrrolo[2,3-c]pyridine-4-carboxamide], the IC50 is 5300 nM.

As a reminder, the IC50 is the midpoint of a concentration-inhibition curve. A low value points to higher potency.
